For eleven molecules, IC50 results are on record in patent publication US7420051B2, “Synthetic process for the manufacture of an ecteinaschidin compound” (Pharma Mar, S.A., priority 2000, dated 2008).

Common to all, as to format: cell-based
One assay relates to CV-1. The assay is described as follows: Cytotoxic activity screening, CV-1 cells. The note with it: Cercopithecidae.
Assay [1] relates to A-549 (monolayer culture of a human lung carcinoma). The assay is described as follows: Cytotoxic activity screening, A-549 cells. The note with it: three days of incubation, Crystal Violet, approximate IC50. Here is the method:
(§1) Cell Cultures. Cells were maintained in logarithmic phase of growth in Eagle's Minimum Essential Medium, with Earle's Balanced Salts, with 2.0 mM L-glutamine, with non-essential amino acids, without sodium bicarbonate (EMEM/neaa); supplemented with 10% Fetal Calf Serum (FCS), 10^−2 M sodium bicarbonate and 0.1 g/l penicillin-G+streptomycin sulfate.
(§2) A simple screening procedure has been carried out to determine and compare the antitumour activity of these compounds, using an adapted form of the method described by Bergeron et al (1984). The tumour cell line employed have been P-388 (suspension culture of a lymphoid neoplasm from DBA/2 mouse), A-549 (monolayer culture of a human lung carcinoma), HT-29 (monolayer culture of a human colon carcinoma) and MEL-28 (monolayer culture of a human melanoma).
(§3) A-549, HT-29 and MEL-28 were seeded into 16 mm wells at 2×10^4 cells per well in 1 ml aliquots of MEM 10FCS containing the indicated concentration of drug. A separate set of cultures without drug was seeded as control growth to ensure that cells remained in exponential phase of growth. All determinations were carried out in duplicate. After three days of incubation at 37° C., 10% CO2 in a 98% humid atmosphere, the wells were stained with 0.1% Crystal Violet. An approximately IC50 was determined by comparing the growth in wells with drug to the growth in wells control.

Assay [2] deals with P-388 (suspension culture of a lymphoid neoplasm from DBA/2 mouse). The assay is described as follows: Cytotoxic activity screening, P-388 cells. Particulars: three days of incubation, approximate IC50. Here is the method:
as §1, §2
P-388 cell were seeded into 16 mm wells at 1×10^4 cells per well in 1 ml aliquots of MEM 5FCS containing the indicated concentration of drug. A separate set of cultures without drug was seeded as control growth to ensure that cells remained in exponential phase of growth. All determinations were carried out in duplicate.

The subject of assay [3] is HT-29 (monolayer culture of a human colon carcinoma). Briefly: Cytotoxic activity screening, HT-29 cells. The note with it: three days of incubation, Crystal Violet, approximate IC50. Here is the method: as §1, §2, §3
Assay [4] has as its system MEL-28 (monolayer culture of a human melanoma). The assay is described as follows: Cytotoxic activity screening, MEL-28 cells. The note with it: SK-MEL-28, 72 h, three days of incubation, Crystal Violet, approximate IC50. The procedure:
as §1, §2, §3

The test system of the next assay is DU-145. The assay is described as follows: Cytotoxic activity screening, DU-145 cells.
Where [5] appears, read: Homo sapiens, DU-145, DU-145 cells.

Bounds are passed on as bounds.

With `COC1=C(C)C(=O)C2=C(C1=O)[C@H](CNC(=O)C(C)N)N1C(C2)[C@H]2c3c(cc(C)c(OC)c3O)C[C@@H]([C@@H]1C#N)N2C` (stereo partly shown), the IC50 (commonly the midpoint of a concentration-inhibition curve) with CV-1 amounted to 0.023 µM; in assay [1] (Homo sapiens, A549, 72 h), 0.018 µM; in assay [2] (Mus musculus, P388, 72 h), 0.009 µM; in assay [3] (Homo sapiens, HT-29, 72 h), 0.018 µM; in assay [4] it was 0.018 µM.

For the molecule `C=CCOc1c(C)c2c(c3c1CC1[C@H]4c5c(cc(C)c(OC)c5O)C[C@@H]([C@H](C#N)N1[C@H]3CNC(=O)OCC(Cl)(Cl)Cl)N4C)OCO2` (stereo partly shown), the IC50 in the assay on CV-1 and in the assay on DU-145 (setting [5]) was 0.014 µM each time.

Take `C=CCOc1c(C)c2c(c3c1CC1[C@H]4c5c(cc(C)c(OC)c5OCOC)C[C@@H]([C@H](C#N)N1[C@H]3CNC(=O)OCC(Cl)(Cl)Cl)N4C)OCO2` (stereo partly shown): the IC50 in the assay with CV-1 and in the assay on DU-145 (setting [5]) was 0.13 µM throughout.

Turning to `COc1c(C)cc2c(c1O)[C@@H]1C3Cc4c(O)c(C)c5c(c4[C@H](CN4C(=O)c6ccccc6C4=O)N3[C@@H](C#N)[C@H](C2)N1C)OCO5` (stereo partly shown), the IC50 in the assay with CV-1 came to 0.001 µM; in assay [1] (Homo sapiens, A549, 72 h), 0.001 µM; in assay [2] (Mus musculus, P388, 72 h) it was 0.001 µM; in assay [3] (Homo sapiens, HT-29, 72 h), 0.001 µM; in the assay on DU-145 (setting [5]) it was 0.001 µM; in assay [4] it was 0.001 µM.

As to `COC1=C(C)C(=O)C2=C(C1=O)[C@H](CNC(=O)C(C)N=CSNc1ccccc1)N1C(C2)[C@H]2c3c(cc(C)c(OC)c3O)C[C@@H]([C@@H]1C#N)N2C` (stereo partly shown), the IC50 with CV-1 was found to be 0.018 µM; in assay [1] (Homo sapiens, A549, 72 h), 0.015 µM; in assay [2] (Mus musculus, P388, 72 h) it was 0.015 µM; in assay [3] (Homo sapiens, HT-29, 72 h) it was 0.015 µM; in assay [4], 0.015 µM.

As for `COCOc1c(OC)c(C)cc2c1[C@@H]1C3CC4=C(C(=O)C(OC)=C(C)C4=O)[C@H](CNC(C)=O)N3[C@@H](C#N)[C@H](C2)N1C` (stereo partly shown), in the assay with CV-1, the IC50 was 0.22 µM.

Turning to `COCOc1c(OC)c(C)cc2c1[C@@H]1C3CC4=C(C(=O)C(O)=C(C)C4=O)[C@H](CNC(C)=O)N3[C@@H](C#N)[C@H](C2)N1C` (stereo partly shown), the IC50 in the assay with CV-1 is over 18.1 µM; in assay [1] (Homo sapiens, A549, 72 h), over 18.1 µM; in assay [2] (Mus musculus, P388, 72 h), over 9 µM; in assay [3] (Homo sapiens, HT-29, 72 h), over 18.1 µM; in assay [4], over 18.1 µM.

Regarding `COc1c(C)cc2c(c1O)[C@@H]1C3Cc4c(OC(C)=O)c(C)c5c(c4[C@H](CNC(=O)/C=C/c4cccc(C(F)(F)F)c4)N3[C@@H](O)[C@H](C2)N1C)OCO5` (stereo partly shown), the concentration for half-maximal inhibition (IC50) in assay [1] (Homo sapiens, A549, 72 h) came out at 0.0001 µM; in assay [2] (Mus musculus, P388, 72 h) it was 0.0001 µM; in assay [3] (Homo sapiens, HT-29, 72 h), 0.0001 µM; in the assay on DU-145 (setting [5]), 0.0001 µM; in assay [4], 0.0001 µM.

Turning to `COc1c(C)cc2c(c1O)[C@@H]1C3Cc4c(OC(C)=O)c(C)c5c(c4[C@H](CNC(=O)[C@H](C)NC(=O)C(F)(F)F)N3[C@@H](O)[C@H](C2)N1C)OCO5` (stereo partly shown), the IC50 in assay [1] (Homo sapiens, A549, 72 h) is 0.0001 µM; in assay [2] (Mus musculus, P388, 72 h), 0.0001 µM; in assay [3] (Homo sapiens, HT-29, 72 h), 0.0001 µM; in the assay with DU-145 (setting [5]) it was 0.0001 µM; in assay [4], 0.0001 µM.

Take `C=CCOc1c(C)c2c(c3c1CC1[C@H]4c5c(cc(C)c(OC)c5OCOC)C[C@@H]([C@H](C#N)N1[C@H]3CN)N4C)OCO2` (stereo partly shown) [drawing 80]: the IC50 came to 1.8 µM in the assay on CV-1 and 0.18 µM in assay [2] (Mus musculus, P388, 72 h).

Regarding `C=CCOc1c(C)c2c(c3c1CC1[C@H]4c5c(cc(C)c(OC)c5OCOC)C[C@@H]([C@H](C#N)N1[C@H]3CN)N4C)OCO2` (stereo partly shown) [drawing 81], the IC50 (in assay [1]; in assay [2]; in assay [3]; in the assay with DU-145 (DU-145 cells); in assay [4]) was 0.2 µM throughout.
